Measurements: PubChem BioAssay (NCI)
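Five compound concentrations were applied to cells in 96-well plates for 48 hours; endpoints were derived by simple linear interpolation of the resulting dose-response curve. The concentration for full growth arrest is given as TGI.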

Legend:
Test in all cases: NCI-60 cell line screen, 48 h
786-0 renal = tested on: 786-0 renal
A498 renal = tested on: A498 renal
A549 NSCLC = tested on: A549 NSCLC
ACHN renal = tested on: ACHN renal
BT-549 breast = tested on: BT-549 breast
CAKI-1 renal = tested on: CAKI-1 renal
CCRF-CEM leukemia = tested on: CCRF-CEM leukemia
COLO 205 colon = tested on: COLO 205 colon
DU-145 prostate = tested on: DU-145 prostate
EKVX NSCLC = tested on: EKVX NSCLC
HCC-2998 colon = tested on: HCC-2998 colon
HCT-116 colon = tested on: HCT-116 colon
HCT-15 colon = tested on: HCT-15 colon
HL-60(TB) leukemia = tested on: HL-60(TB) leukemia
HOP-62 NSCLC = tested on: HOP-62 NSCLC
HS 578T breast = tested on: HS 578T breast
HT29 colon = tested on: HT29 colon
IGROV1 ovarian = tested on: IGROV1 ovarian
K-562 leukemia = tested on: K-562 leukemia
KM12 colon = tested on: KM12 colon
LOX IMVI melanoma = tested on: LOX IMVI melanoma
M14 melanoma = tested on: M14 melanoma
MALME-3M melanoma = tested on: MALME-3M melanoma
MCF7 breast = tested on: MCF7 breast
MDA-MB-231 breast = tested on: MDA-MB-231 breast
MDA-MB-435 = tested on: MDA-MB-435
MDA-N = tested on: MDA-N
MOLT-4 leukemia = tested on: MOLT-4 leukemia
NCI-H226 lung = tested on: NCI-H226 lung
NCI-H23 lung = tested on: NCI-H23 lung
NCI-H460 lung = tested on: NCI-H460 lung
NCI-H522 lung = tested on: NCI-H522 lung
NCI/ADR-RES ovarian = tested on: NCI/ADR-RES ovarian
OVCAR-3 ovarian = tested on: OVCAR-3 ovarian
OVCAR-4 ovarian = tested on: OVCAR-4 ovarian
OVCAR-5 ovarian = tested on: OVCAR-5 ovarian
OVCAR-8 ovarian = tested on: OVCAR-8 ovarian
PC-3 prostate = tested on: PC-3 prostate
RPMI-8226 leukemia = tested on: RPMI-8226 leukemia
SF-268 CNS = tested on: SF-268 CNS
SF-295 CNS = tested on: SF-295 CNS
SF-539 CNS = tested on: SF-539 CNS
SK-MEL-2 melanoma = tested on: SK-MEL-2 melanoma
SK-MEL-28 melanoma = tested on: SK-MEL-28 melanoma
SK-MEL-5 melanoma = tested on: SK-MEL-5 melanoma
SK-OV-3 ovarian = tested on: SK-OV-3 ovarian
SN12C renal = tested on: SN12C renal
SNB-19 CNS = tested on: SNB-19 CNS
SNB-75 CNS = tested on: SNB-75 CNS
SR leukemia = tested on: SR leukemia
SW-620 colon = tested on: SW-620 colon
T-47D breast = tested on: T-47D breast
TK-10 renal = tested on: TK-10 renal
U251 CNS = tested on: U251 CNS
UACC-257 melanoma = tested on: UACC-257 melanoma
UACC-62 melanoma = tested on: UACC-62 melanoma
UO-31 renal = tested on: UO-31 renal
HOP-92 NSCLC = tested on: HOP-92 NSCLC
RXF 393 renal = tested on: RXF 393 renal

Work on `COC(=O)c1cc2c(cc1CC1Cc3cc4c(cc3C1=O)CCC4)CCC2` (configuration not stated) yielded a TGI (786-0 renal) greater than 100 µM, a TGI (A498 renal) greater than 100 µM and a TGI (A549 NSCLC) greater than 100 µM. It also gave a TGI (ACHN renal) greater than 100 µM, a TGI (BT-549 breast) greater than 100 µM and a TGI (CAKI-1 renal) greater than 100 µM. For the same molecule, the TGI (CCRF-CEM leukemia) was greater than 100 µM, the TGI (COLO 205 colon) was greater than 100 µM and the TGI (DU-145 prostate) was greater than 100 µM. It also gave a TGI (EKVX NSCLC) greater than 100 µM, a TGI (HCC-2998 colon) greater than 100 µM and a TGI (HCT-116 colon) greater than 100 µM. It also gave a TGI (HCT-15 colon) greater than 100 µM, a TGI (HL-60(TB) leukemia) greater than 100 µM and a TGI (HOP-62 NSCLC) greater than 100 µM. For the same molecule, the TGI (HS 578T breast) was greater than 100 µM, the TGI (HT29 colon) was greater than 100 µM and the TGI (IGROV1 ovarian) was greater than 100 µM. It also gave a TGI (K-562 leukemia) greater than 100 µM, a TGI (KM12 colon) greater than 100 µM and a TGI (LOX IMVI melanoma) greater than 100 µM. It also gave a TGI (M14 melanoma) greater than 100 µM, a TGI (MALME-3M melanoma) greater than 100 µM and a TGI (MCF7 breast) greater than 100 µM. For the same molecule, the TGI (MDA-MB-231 breast) was greater than 100 µM, the TGI (MDA-MB-435) was greater than 100 µM and the TGI (MDA-N) was greater than 100 µM. For the same molecule, the TGI (MOLT-4 leukemia) was 57.5 µM, the TGI (NCI-H226 lung) was greater than 100 µM and the TGI (NCI-H23 lung) was greater than 100 µM. It also gave a TGI (NCI-H460 lung) greater than 100 µM, a TGI (NCI-H522 lung) greater than 100 µM and a TGI (NCI/ADR-RES ovarian) greater than 100 µM. The TGI (OVCAR-3 ovarian) was greater than 100 µM, the TGI (OVCAR-4 ovarian) was greater than 100 µM and the TGI (OVCAR-5 ovarian) was greater than 100 µM. It also gave a TGI (OVCAR-8 ovarian) greater than 100 µM, a TGI (PC-3 prostate) greater than 100 µM and a TGI (RPMI-8226 leukemia) greater than 100 µM. The TGI (SF-268 CNS) was greater than 100 µM, the TGI (SF-295 CNS) was 89.2 µM and the TGI (SF-539 CNS) was greater than 100 µM. The TGI (SK-MEL-2 melanoma) was greater than 100 µM, the TGI (SK-MEL-28 melanoma) was greater than 100 µM and the TGI (SK-MEL-5 melanoma) was 42.5 µM. The TGI (SK-OV-3 ovarian) was greater than 100 µM, the TGI (SN12C renal) was greater than 100 µM and the TGI (SNB-19 CNS) was greater than 100 µM. The TGI (SNB-75 CNS) was greater than 100 µM, the TGI (SR leukemia) was greater than 100 µM and the TGI (SW-620 colon) was greater than 100 µM. It also gave a TGI (T-47D breast) greater than 100 µM, a TGI (TK-10 renal) greater than 100 µM and a TGI (U251 CNS) greater than 100 µM. The TGI (UACC-257 melanoma) was greater than 100 µM, the TGI (UACC-62 melanoma) was greater than 100 µM and the TGI (UO-31 renal) was greater than 100 µM.

Molecule `CO/C(N)=C(\C#N)N=Cc1ccco1` has a TGI (786-0 renal) greater than 100 µM, a TGI (A498 renal) greater than 100 µM and a TGI (A549 NSCLC) greater than 100 µM. It also gave a TGI (ACHN renal) greater than 100 µM, a TGI (BT-549 breast) greater than 100 µM and a TGI (CAKI-1 renal) greater than 100 µM. For the same molecule, the TGI (CCRF-CEM leukemia) was greater than 100 µM, the TGI (COLO 205 colon) was greater than 100 µM and the TGI (DU-145 prostate) was greater than 100 µM. For the same molecule, the TGI (EKVX NSCLC) was greater than 100 µM, the TGI (HCC-2998 colon) was greater than 100 µM and the TGI (HCT-116 colon) was greater than 100 µM. It also gave a TGI (HCT-15 colon) greater than 100 µM, a TGI (HL-60(TB) leukemia) greater than 100 µM and a TGI (HOP-62 NSCLC) greater than 100 µM. The TGI (HOP-92 NSCLC) was greater than 100 µM, the TGI (HS 578T breast) was greater than 100 µM and the TGI (HT29 colon) was greater than 100 µM. The TGI (IGROV1 ovarian) was greater than 100 µM, the TGI (K-562 leukemia) was greater than 100 µM and the TGI (KM12 colon) was greater than 100 µM. The TGI (LOX IMVI melanoma) was greater than 100 µM, the TGI (M14 melanoma) was greater than 100 µM and the TGI (MALME-3M melanoma) was greater than 100 µM. It also gave a TGI (MCF7 breast) greater than 100 µM, a TGI (MDA-MB-231 breast) greater than 100 µM and a TGI (MDA-MB-435) greater than 100 µM. For the same molecule, the TGI (MDA-N) was greater than 100 µM, the TGI (MOLT-4 leukemia) was greater than 100 µM and the TGI (NCI-H226 lung) was greater than 100 µM. The TGI (NCI-H23 lung) was greater than 100 µM, the TGI (NCI-H522 lung) was greater than 100 µM and the TGI (NCI/ADR-RES ovarian) was greater than 100 µM. It also gave a TGI (OVCAR-3 ovarian) greater than 100 µM, a TGI (OVCAR-4 ovarian) greater than 100 µM and a TGI (OVCAR-5 ovarian) greater than 100 µM. It also gave a TGI (OVCAR-8 ovarian) greater than 100 µM, a TGI (PC-3 prostate) greater than 100 µM and a TGI (RPMI-8226 leukemia) greater than 100 µM. For the same molecule, the TGI (RXF 393 renal) was greater than 100 µM, the TGI (SF-268 CNS) was greater than 100 µM and the TGI (SF-295 CNS) was greater than 100 µM. For the same molecule, the TGI (SK-MEL-2 melanoma) was greater than 100 µM, the TGI (SK-MEL-28 melanoma) was greater than 100 µM and the TGI (SK-MEL-5 melanoma) was greater than 100 µM. For the same molecule, the TGI (SK-OV-3 ovarian) was greater than 100 µM, the TGI (SN12C renal) was greater than 100 µM and the TGI (SNB-75 CNS) was greater than 100 µM. It also gave a TGI (SW-620 colon) greater than 100 µM, a TGI (T-47D breast) greater than 100 µM and a TGI (TK-10 renal) greater than 100 µM. The TGI (U251 CNS) was greater than 100 µM, the TGI (UACC-257 melanoma) was greater than 100 µM and the TGI (UACC-62 melanoma) was greater than 100 µM. The TGI (UO-31 renal) was greater than 100 µM.
